Here are results for 15 molecules from patent US10954222B2, “Benzothiophene compound, alternative autophagy-inducing agent and anticancer agent including the compound as active ingredient, and method for screening for compound having anticancer activity” (National University Corporation Tokyo Medical and Dental …, priority 2012, dated 2021).

For one data set, the system named is Lamp1-GFP/ATG5-KO MEFs. Briefly: Evaluation of activity to induce alternative autophagy (fluorescent bright spots due to aggregation of Lamp1-GFP). It counts as cell-based, mouse. The note with it: for ability to induce alternative autophagy, comparative statement: as shown in Examples; for alternative autophagy-inducing activity (FIG. 16): Example 9, same method as Example 1. As for the experimental part: First, by using a retrovirus, a gene for expression of a Lamp1-GFP fusion protein (also referred to as “Lamp1-GFP”) was introduced into ATG5-deficient mouse embryonic fibroblasts (also referred to as “ATG5-KO MEFs”). Then, a cell with high expression of Lamp1-GFP was cloned and prepared as Lamp1-GFP/ATG5-KO MEFs.
The ATG5-KO MEFs were prepared by introducing a gene for expression of SV40T antigen into MEFs established from an ATG5-deficient C57/B6J mouse at a fetal age of 14.5 days by an electroporation method using an Nucleofector system (manufactured by amaxa) for immortalization. In addition, the retrovirus was prepared by introducing an MSCV-Lamp1-GFP (zeocin resistant) vector into plat E cells, which were retrovirus packaging cells.
To the Lamp1-GFP/ATG5-KO MEFs seeded at 1×10^4/96 wells on the preceding day, each of the test compounds was added at a final concentration of 50 μM, and the Lamp1-GFP/ATG5-KO MEFs were cultured at 37° C. under 10% CO2 for 5 hours.
Then, for observation, Hoechst 33342 (manufactured by invitrogen) was added at a final concentration of 1 ng/ml to each culture liquid, followed by incubation for 5 minutes. Then, the culture liquid was replaced with 100 μl of HBSS. Subsequently, five visual fields per well were photographed at random with IN CELL ANALYZER 1000 (manufactured by GE Healthcare).
Then, the thus obtained novel benzothiophene compounds (TMD-459 and TMD-460) were evaluated for the ability to induce alternative autophagy by the same method as that described in Example 1. Note that, in Example 10, each of the compounds was added to culture liquids at final concentrations of 10, 20, 30, 40, and 50 μM. In addition, compound #9 was also added as a reference example to culture liquids at the above-described concentrations. Then, 5 hours after the addition of each of these compounds, five visual fields per each well were photographed at random with IN CELL ANALYZER 1000, and the presence or absence of fluorescent bright spots due to the aggregation of Lamp1-GFP was visually determined.

Data set [1] deals with tumor cell line 53T implanted in wild-type C57/B6J mice. The data set can be described thus: In vivo anticancer activity, tumor volume in cancer-bearing mice implanted with 53T. The note with it: for anticancer activity (FIG. 17, tumor volumes in cancer-bearing mice): Example 9. Also noted: species or system mouse. On the procedure: A tumor cell line (also referred to as “53T”) established from a tumor developed spontaneously in a p53 deficient C57/B6J mouse was implanted at 4 sites in the ventral skin of each of wild-type C57/B6J mice at 3×10^5 cells per site. From the following day, the compounds were administered to the mice every other day five times in total. The concentration of each compound was 0.4 μmol/(50 μl DMSO+100 μl PBS)/mouse/administration. In addition, a negative control group to which only the same amount of DMSO was administered was prepared. Then, 21 days (3 weeks) after the implantation, the tumor diameters of the mice were measured, and the tumor volumes were calculated, and compared with that of the control group.
The 53T was implanted at 4 sites in the ventral skin of each of wild-type C57/B6J mice at 3×10^5 cells per site. From the following day, 0 (DMSO alone), 5, 10, or 20 μM of each of compounds #09 and #13 was administered to six mice every other day five times in total. Then, 21 days (3 weeks) after the implantation, the tumor diameters of the mice were measured, and the tumor volumes were calculated. FIGS. 9 and 11 show the obtained results. Note that, in FIGS. 9 and 11, each point indicates the average volume of the tumors at the four sites in a mouse.
In addition, in the same manner as described above, the 53T was implanted in mice, and, from the following day, each of compound #09 at a concentration of 10 μM and compound #13 at a concentration of 5 μM was administered to four cancer-bearing mice every other day five times in total. Then, 21 days (3 weeks) after the implantation, the tumor diameters of the mice were measured, and the tumor volumes were calculated. In addition, a negative control to which DMSO was administered was also prepared, and the tumor volume was calculated in the same manner. In addition, these experiments were conducted three times independently of each other. FIGS. 10 and 12 show the obtained results. Note that in FIGS. 10 and 12, each point indicates the average volume of the tumors at the four sites in a mouse.

Data set [2] in a line: Cell-killing effect (necrosis) of analogous compounds. The format is cell-based. The note with it: even when added at a low concentration.
The test system of data set [3] is mouse tumor cell line 53T. The data set can be described thus: Evaluation of in vitro anticancer activity (Cell titer blue, cell death induction rate). It counts as cell-based. Set-up: key: (CTB of negative control − CTB treated)/CTB of negative control. The note with it: 24 hours, CTB. As for the experimental part: First, the mouse tumor cell line 53T was seeded at 2×10^4/well on 96 well plates. Then, on the following day, each of compounds #09 and #13 dissolved in DMSO was added at a final concentration of 1, 5, 10, 20, or 50 μM. In addition, a negative control to which only DMSO was added was prepared. Subsequently, the cells were cultured at 37° C. under 10% CO2 for 24 hours. Then, by using Cell titer blue (CTB) (manufactured by Promega) according to the attached protocol, the amount of the fluorescence of each well of the cells 10 minutes after the addition of the CTB reagent was measured as a CTB measurement value of the cells brought into contact with compound #09 or #13. On the basis of such measurement values, the cell death induction rate of each of compounds #09 and #13 was calculated according to the following formula. Cell death induction rate=(CTB measurement value of negative control−CTB measurement value of cells to which compound was added)/CTB measurement value of negative control
On the technique in general: Resazurin is reduced to fluorescent resorufin, in cell work by metabolically active cells.

Data set [4] relates to p53-deficient cancer cells (53T). The data set can be described thus: Alternative autophagy-inducing activity in tumor cell line (Lamp2 aggregation, fluorescence and electron microscope). Particulars: 20 μM, six hours, FIGS. 3 to 6. The format is cell-based, mouse. On the procedure:
In the same manner as in the above-described <Evaluation of Alternative Autophagy-Inducing Activity> using the Lamp1-GFP/ATG5-KO MEFs, each of the compounds #09 and #13 was added at a final concentration of 20 μM to a culture liquid of the tumor cell line (also referred to as “53T”) established from the tumor developed spontaneously in the p53 deficient C57/B6J mouse. […] Note that, in this evaluation, Lamp2 was used instead of Lamp1. FIGS. 3 to 6 show the obtained results.

Data set [5] deals with 53T implanted in wild-type C57/B6J mice. The data set can be described thus: Survival rate of cancer-bearing mice. Particulars: 10 μM every other day 5 times; compared with etoposide at 10 μM, FIGS. 13 to 15. It counts as in vivo, mouse.
For data set [6], the system named is fibroblasts (cancer cells) immortalized with SV40. Briefly: Activity to induce cell death specific to cancer cells: cancer cells (CTB survival rate). The format is cell-based. Particulars: 20 μM, FIGS. 7 and 8.
The subject of data set [7] is primary cultured fibroblasts (normal cells). The data set can be described thus: Activity to induce cell death specific to cancer cells: normal cells (CTB survival rate). The format is cell-based. Particulars: 20 μM, FIGS. 7 and 8. As for the experimental part: CTB measurement values were obtained in the same manner as in the above-described <Evaluation of In Vitro Anticancer Activity> by adding each of compounds #09 and #13 at a final concentration of 20 μM to culture liquids of primary cultured fibroblasts (normal cells) and fibroblasts (cancer cells) immortalized with SV40. On the basis of the obtained CTB measurement values, the cell survival rate was calculated over time. Note that the cell survival rate was defined as 1-cell death induction rate. FIGS. 7 and 8 show the obtained results.

Regarding `CCOC(=O)c1c(NC(C)=O)sc2c(OCCN(CC)CC)c(-c3ccc(O)cc3)ccc12` [formula (1-15)], the “ability to induce alternative autophagy, comparative statement” value (“ability to induce alternative autophagy” for short) in the data set on Lamp1-GFP/ATG5-KO MEFs is listed as “ability to induce alternative autophagy is higher”.
For the molecule `CCCC(=O)c1c(NC(C)=O)sc2c(Cl)c(/C=N\CCCCO)ccc12` [compound 46], in data set [1], the “anticancer activity (FIG. 17, tumor volumes in cancer-bearing mice)” value is given as “did not have anticancer activity”. Also, the “alternative autophagy-inducing activity (FIG. 16)” value in the data set on Lamp1-GFP/ATG5-KO MEFs is reported as “no alternative autophagy-inducing activity”.
Taken in the same sequence, the figures for `CCOC(=O)c1c(NC(C)=O)sc2c(OC(C)=O)cccc12` [compound 37] were “did not have anticancer activity” and “no alternative autophagy-inducing activity”.
On the same counts, the results for `COc1c(Br)ccc2c(C(=O)O)c(NC(C)=O)sc12` [compound 40] are “did not have anticancer activity” and “no alternative autophagy-inducing activity”.
As to `C=CC/N=C/c1cc(C)c2c(C(=O)OCC)c(NC(C)=O)sc2c1Cl` [compound 47], the “cell-killing effect (necrosis)” value in data set [2] is “strong cell-killing effect (necrosis)”.
In the case of `CCOC(=O)c1c(NC(C)=O)sc2c(Cl)c(/C=N/c3ccccc3)cc(Br)c12` [compound 44], in data set [1], the “anticancer activity (FIG. 17, tumor volumes in cancer-bearing mice)” value was “did not have anticancer activity”. Further, the “alternative autophagy-inducing activity (FIG. 16)” value in the data set on Lamp1-GFP/ATG5-KO MEFs is reported as “no alternative autophagy-inducing activity”.
For `CCOC(=O)c1c(NC(C)=O)sc2c(OCC(O)CNC3CCCCC3)c(Br)ccc12` (centres unmarked) [compound 36], the “cell-killing effect (necrosis)” value in data set [2] is given as “strong cell-killing effect (necrosis)”.
`CCOC(=O)c1c(NC(C)=O)sc2c(OCCN(CC)CC)c(-c3ccc(OC)cc3)ccc12` [formula (1-10)]: the “ability to induce alternative autophagy” value in the data set with Lamp1-GFP/ATG5-KO MEFs was “ability to induce alternative autophagy is higher”.
For the molecule `N=C(Nc1ccc2c(c1)OCCO2)Nc1nc(-c2cccs2)cc(C(F)(F)F)n1` [compound 13], the “Cell death induction rate” value is listed as 0 in data set [3] (1 μM); 0.1776 in data set [3] (5 μM); 0.4559 in data set [3] (10 μM); 0.768 in data set [3] (20 μM); 0.9426 in data set [3] (50 μM). Besides, the “aggregation of Lamp2 and occurrence of autophagy” value in data set [4] is “aggregation of the lysosomal protein Lamp2 and occurrence of autophagy were observed”. In addition, in data set [5], the “improvement effect on the survival rate of the cancer-bearing mice” value was “higher improvement effect on the survival rate of the cancer-bearing mice than etoposide”. Moreover, the “in vivo anticancer activity (tumor volume vs control group, FIG. 2)” value in data set [1] (0.4 μmol/mouse/administration, every other day five times, 21 days after implantation) is listed as “selected as compounds having in vivo anticancer activity”. Further, the “in vivo anticancer activity (tumor volume, FIGS. 9 to 12)” value in data set [1] (5, 10, or 20 μM every other day five times, 21 days after implantation) is recorded as “exhibited in vivo anticancer activity”. For the same molecule, the “in vivo anticancer activity at low concentration (FIG. 11)” value in data set [1] (administered at 5 μM) was “exhibited remarkable anticancer activity”. Moreover, in data set [6], the “cell death-inducing activity on cancer cells (cell survival rate over time)” value is reported as “exhibited remarkable cell death-inducing activity on the cancer cells”. Besides, the “cell death of normal cells (cell survival rate over time)” value in data set [7] is on record as “hardly induced cell death of the normal cells”.
For the molecule `CCOC(=O)c1c(NC(C)=O)sc2c(OCCN(CC)CC)c(-c3cccs3)ccc12` [formula (1-17)], in the data set on Lamp1-GFP/ATG5-KO MEFs, the “ability to induce alternative autophagy” value is reported as “ability to induce alternative autophagy is higher”.
On the same count and under the same terms, the entry for `CCOC(=O)c1c(NC(C)=O)sc2c(OCCN(CC)CC)c(-c3ccccc3SC)ccc12` [formula (1-14)] is “ability to induce alternative autophagy is higher”.
Regarding `CCOC(=O)c1c(NC(C)=O)sc2c(NC(C)=O)cccc12` [compound 38], in data set [1], the “anticancer activity (FIG. 17, tumor volumes in cancer-bearing mice)” value is listed as “did not have anticancer activity”. Moreover, the “alternative autophagy-inducing activity (FIG. 16)” value in the data set with Lamp1-GFP/ATG5-KO MEFs is on record as “no alternative autophagy-inducing activity”.
On the same counts, the results for `CCOC(=O)c1c(NC(=O)c2ccccc2)sc2c(O)c(Br)cc(Br)c12` [compound 42] are “did not have anticancer activity” and “no alternative autophagy-inducing activity”.
Turning to `CCOC(=O)c1c(NC(C)=O)sc2c(OCCN(CC)CC)c(-c3ccsc3)ccc12` [formula (1-18)], the “ability to induce alternative autophagy” value with Lamp1-GFP/ATG5-KO MEFs is “ability to induce alternative autophagy is higher”.
Turning to `CCOC(=O)c1c(NC(C)=O)sc2c(OCCN(CC)CC)c(-c3ccccc3)ccc12` [TMD-459, Ethyl 2-Acetylamino-7-[2-(N,N-diethylamino)ethyloxy]-6-phenylbenzo[b]thiophene-3-carboxylate], the “aggregation of Lamp1-GFP, visually determined” value in the data set with Lamp1-GFP/ATG5-KO MEFs (concentrations of 10 μM or higher (10 to 50 μM), 5 hours) is listed as “aggregation of the Lamp1-GFP was observed in all the cells”.
